The target of assay [1] is T1, Recombinant full-length human IDO1 (Homo sapiens, UniProt P14902).
T1 construct: Recombinant full-length human IDO1 with a N-terminal hexahistidine tag; hexahistidine (His6) (N); made in house; host or cells: E. coli
The experiment in a line: IDO1 enzymatic assay (NFK quantified by LCMS). Format: biochemical. Conditions: 2 nM enzyme, 5 μM L-tryptophan, pH6.5, 30 minutes pre-incubation at RT; mean values when measured multiple times; read-out: hIDO activity (IC50 in nM). The gist of the method: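 His-tagged human IDO1 (2 nM) in pH 6.5 phosphate buffer with ascorbate, methylene blue and catalase was preincubated with compound (10 μM–0.5 nM, 0.6% DMSO) for 30 min at RT. The reaction then ran with 5 μM L-Trp for 30 min. NFK was measured by LCMS against a d5-Trp standard, and IC50 was obtained by four-parameter fit.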

Assay [2] addresses T2, Recombinant human TDO comprising amino acids 19-407 (Homo sapiens, UniProt P48775).
T2 construct: Recombinant human TDO comprising amino acids 19-407 with a N-terminal hexahistidine tag; hexahistidine (His6) (N); made in house; host or cells: E. coli
The experiment in a line: TDO2 enzymatic assay (NFK quantified by LCMS). Format: biochemical. Conditions: 15 nM enzyme, 200 μM L-tryptophan, pH7, 30 minutes pre-incubation at RT; mean values when measured multiple times; read-out: hTDO activity (IC50 in nM). The gist of the method: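 NFK formed over 30 min at RT from 200 μM L-tryptophan was measured by LCMS, normalized to d5-tryptophan, after compound (0.5 nM–10 μM, duplicates, 0.6% DMSO) was preincubated 30 min with 15 nM recombinant His-tagged TDO 19-407 in phosphate buffer pH 7. IC50 from four-parameter logistic fit; repeats averaged.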

Consider 26 compounds from patent US20200405696A1, “INHIBITORS OF INDOLEAMINE 2,3-DIOXYGENASE AND/OR TRYPTOPHAN 2,3-DIOXYGENASE” (IDORSIA PHARMACEUTICALS LTD, priority 2018, published 2020).

Some results are limits rather than exact numbers.

T1 sequence (P14902 whole entry): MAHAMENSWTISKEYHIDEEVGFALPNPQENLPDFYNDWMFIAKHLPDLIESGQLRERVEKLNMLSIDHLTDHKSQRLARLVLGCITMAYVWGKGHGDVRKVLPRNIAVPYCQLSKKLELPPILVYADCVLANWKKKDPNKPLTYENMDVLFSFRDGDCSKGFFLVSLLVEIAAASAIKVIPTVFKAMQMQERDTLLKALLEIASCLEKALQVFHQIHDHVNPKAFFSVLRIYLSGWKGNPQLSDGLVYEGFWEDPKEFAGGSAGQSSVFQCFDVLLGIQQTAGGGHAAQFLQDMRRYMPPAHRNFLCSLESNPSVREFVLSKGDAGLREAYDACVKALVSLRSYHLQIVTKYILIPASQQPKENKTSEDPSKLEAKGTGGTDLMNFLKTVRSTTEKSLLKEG
T2 sequence (P48775 19-406 limits assumed): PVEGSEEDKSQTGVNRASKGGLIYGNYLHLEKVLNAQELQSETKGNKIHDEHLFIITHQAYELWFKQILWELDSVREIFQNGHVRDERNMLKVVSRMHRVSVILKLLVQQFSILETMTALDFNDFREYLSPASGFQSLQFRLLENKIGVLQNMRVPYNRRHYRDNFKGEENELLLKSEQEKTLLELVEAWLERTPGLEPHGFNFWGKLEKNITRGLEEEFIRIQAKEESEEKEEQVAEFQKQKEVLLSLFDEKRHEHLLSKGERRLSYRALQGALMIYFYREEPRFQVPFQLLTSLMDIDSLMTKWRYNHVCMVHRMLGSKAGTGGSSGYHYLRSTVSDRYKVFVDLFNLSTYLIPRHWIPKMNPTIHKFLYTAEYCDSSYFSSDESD

For orientation: IC50 means the concentration that inhibits the measured activity by half. Regarding `O=C(NC1CC1)c1ccc(-n2cc(C(O)c3c(C4CC4)sc4cncn34)nn2)cc1` (racemic) [Example 105, rac-N-Cyclopropyl-4-{4-[(2-cyclopropyl-imidazo[5,1-b]thiazol-3-yl)-hydroxy-methyl]-[1,2,3]triazol-1-yl}-benzamide], the IC50 in assay [1] was 22.1 nM; in assay [2], greater than 10200 nM.

In the case of `Cc1cccc(-n2cc(C(O)c3c(C4CC4)sc4cncn34)nn2)c1` (racemic) [Example 28, rac-(2-Cyclopropyl-imidazo[5,1-b]thiazol-3-yl)-(1-m-tolyl-1H-[1,2,3]triazol-4-yl)-methanol], the IC50 in assay [1] was 28.8 nM; in assay [2] it was greater than 10200 nM.

For `CCc1sc2cncn2c1C(O)c1cn(-c2ccc(C(=O)NCCC#N)cc2)nn1` (racemic) [Example 130, rac-N-(2-Cyano-ethyl)-4-{4-[(2-ethyl-imidazo[5,1-b]thiazol-3-yl)-hydroxy-methyl]-[1,2,3]triazol-1-yl}-benzamide], the values for the IC50 in assay [1] and in assay [2] were 13.1 nM and greater than 10200 nM, respectively.

As to `OC(c1ccc(-c2ccccc2)cc1)c1c(C2CC2)sc2cncn12` (racemic) [Example 152, rac-Biphenyl-4-yl-(2-cyclopropyl-imidazo[5,1-b]thiazol-3-yl)-methanol], the IC50 in assay [1] is 184 nM; in assay [2] it was greater than 10200 nM.

Consider `OC(c1ccc(-c2ccccc2)s1)c1c(C2CC2)sc2cncn12` (racemic) [Example 164, rac-(2-Cyclopropyl-imidazo[5,1-b]thiazol-3-yl)-(5-phenyl-thiophen-2-yl)-methanol], for which the results for the IC50 in assay [1] and in assay [2] were 317 nM and greater than 10200 nM, respectively.

Consider `Cc1sc2cncn2c1C(O)c1cn(Cc2ccccc2)nn1` (racemic) [Example 62, rac-(1-Benzyl-1H-[1,2,3]triazol-4-yl)-(2-methyl-imidazo[5,1-b]thiazol-3-yl)-methanol], for which the figures for the IC50 in assay [1] and in assay [2] were 795 nM and greater than 10200 nM, respectively.

`CC(C)(C)OC(=O)Nc1ccc(-n2cc(C(O)c3c(C4CC4)sc4cncn34)nn2)cc1` (racemic) [Example 180, rac-(4-{4-[(2-Cyclopropyl-imidazo[5,1-b]thiazol-3-yl)-hydroxy-methyl]-[1,2,3]triazol-1-yl}-phenyl)-carbamic acid tert-butyl ester]: the IC50 in assay [1] is 33.6 nM; in assay [2], greater than 10200 nM.

Regarding `CCc1sc2cncn2c1C(O)c1cn(-c2ccc(OCC3CC3)cc2)nn1` (racemic) [Example 54, rac-[1-(4-Cyclopropylmethoxy-phenyl)-1H-[1,2,3]triazol-4-yl]-(2-ethyl-imidazo[5,1-b]thiazol-3-yl)-methanol], the IC50 in assay [1] was 12.3 nM; in assay [2], greater than 10200 nM.

For the compound `OC(c1cn(-c2ccc3c(Cl)n[nH]c3c2)nn1)c1c(C2CC2)sc2cncn12` (racemic) [Example 258, rac-[1-(3-Chloro-1H-indazol-6-yl)-1H-[1,2,3]triazol-4-yl]-(2-cyclopropyl-imidazo[5,1-b]thiazol-3-yl)-methanol], the values for the IC50 in assay [1] and in assay [2] were 34 nM and greater than 10200 nM, respectively.

`C=C(C)c1sc2cncn2c1C(O)c1cn(-c2ccc(OCCCO)c(Cl)c2)nn1` (racemic) [Example 301, rac-3-(2-Chloro-4-{4-[hydroxy-(2-isopropenyl-imidazo[5,1-b]thiazol-3-yl)-methyl]-[1,2,3]triazol-1-yl}-phenoxy)-propan-1-ol]: the IC50 in assay [1] was 25.1 nM; in assay [2] it was greater than 10200 nM.

As for `COc1ccc(-n2cc([C@H](O)c3c(C4CC4)sc4cncn34)nn2)cc1` [Example 9a, (R)-(2-Cyclopropyl-imidazo[5,1-b]thiazol-3-yl)-[1-(4-methoxy-phenyl)-1H-[1,2,3]triazol-4-yl]-methanol], the IC50 in assay [1] is 5.98 nM; in assay [2], greater than 10200 nM.

Consider `CCCCNC(=O)Nc1ccc(-n2cc(C(O)c3c(CC)sc4cncn34)nn2)cc1` (racemic) [Example 122, rac-1-Butyl-3-(4-{4-[(2-ethyl-imidazo[5,1-b]thiazol-3-yl)-hydroxy-methyl]-[1,2,3]triazol-1-yl}-phenyl)-urea], for which the values for the IC50 in assay [1] and in assay [2] were 25.6 nM and 2070 nM, respectively.

For the compound `OC(c1cn(-c2ccc(OC(F)(F)F)cc2)nn1)c1c(C2CC2)sc2cncn12` (racemic) [Example 31, rac-(2-Cyclopropyl-imidazo[5,1-b]thiazol-3-yl)-[1-(4-trifluoromethoxy-phenyl)-1H-[1,2,3]triazol-4-yl]-methanol], the IC50 was 108 nM in assay [1] and greater than 10200 nM in assay [2].

Take `OC(c1cn(-c2ccc(OCc3ccccc3)cc2)nn1)c1c(C2CC2)sc2cncn12` (racemic) [Example 45, rac-[1-(4-Benzyloxy-phenyl)-1H-[1,2,3]triazol-4-yl]-(2-cyclopropyl-imidazo[5,1-b]thiazol-3-yl)-methanol]: the IC50 is 46.4 nM in assay [1] and greater than 10200 nM in assay [2].

Turning to `OC(c1nnc(-c2ccccc2)s1)c1c(C2CC2)sc2cncn12` (racemic) [Example 175, rac-(2-Cyclopropyl-imidazo[5,1-b]thiazol-3-yl)-(5-phenyl-[1,3,4]thiadiazol-2-yl)-methanol], the 50% inhibitory concentration (IC50) in assay [1] was 122 nM; in assay [2], greater than 10200 nM.

`O[C@@H](c1cn(-c2ccc(OCC3(F)COC3)cc2)nn1)c1c(C2CC2)sc2cncn12` [Example 145a, (R)-(2-Cyclopropyl-imidazo[5,1-b]thiazol-3-yl)-{1-[4-(3-fluoro-oxetan-3-ylmethoxy)-phenyl]-1H-[1,2,3]triazol-4-yl}-methanol]: the IC50 in assay [1] is 8.77 nM; in assay [2], greater than 10200 nM.

As for `COc1ccc(-n2cc(C(O)c3c(C4=CCCC4)sc4cncn34)nn2)cc1` (racemic) [Example 259, rac-(2-(Cyclopent-1-enyl)-imidazo[5,1-b]thiazol-3-yl)-[1-(4-methoxy-phenyl)-1H-[1,2,3]triazol-4-yl]-methanol], the values for the IC50 in assay [1] and in assay [2] were 85.6 nM and greater than 10200 nM, respectively.

On to `COc1ccc(-n2cc(C(O)c3c(-c4ccc(F)cc4)sc4cncn34)nn2)cc1` (racemic) [Example 286, rac-[2-(4-Fluoro-phenyl)-imidazo[5,1-b]thiazol-3-yl]-[1-(4-methoxy-phenyl)-1H-[1,2,3]triazol-4-yl]-methanol], for which the IC50 was 704 nM in assay [1] and greater than 10200 nM in assay [2].

Consider `OC(c1cn(-c2cccc3cc[nH]c23)nn1)c1c(C2CC2)sc2cncn12` (racemic) [Example 27, rac-(2-Cyclopropyl-imidazo[5,1-b]thiazol-3-yl)-[1-(1H-indol-7-yl)-1H-[1,2,3]triazol-4-yl]-methanol], for which the IC50 in assay [1] was 24.1 nM; in assay [2], greater than 10200 nM.

Take `OC(c1cn(-c2cncnc2)nn1)c1c(C2CC2)sc2cncn12` (racemic) [Example 19, rac-(2-Cyclopropyl-imidazo[5,1-b]thiazol-3-yl)-(1-pyrimidin-5-yl-1H-[1,2,3]triazol-4-yl)-methanol]: the IC50 is 182 nM in assay [1] and greater than 10200 nM in assay [2].

Regarding `CCNS(=O)(=O)c1ccc(-n2cc(C(O)c3c(C4CC4)sc4cncn34)nn2)cc1` (racemic) [Example 239, rac-4-{4-[(2-Cyclopropyl-imidazo[5,1-b]thiazol-3-yl)-hydroxy-methyl]-[1,2,3]triazol-1-yl}-N-ethyl-benzenesulfonamide], the IC50 is 53 nM in assay [1] and greater than 10200 nM in assay [2].

For `CC(F)(F)c1sc2cncn2c1C(O)c1cn(-c2ccc(OCCCO)c(Cl)c2)nn1` (racemic) [Example 314, rac-3-[2-Chloro-4-(4-{[2-(1,1-difluoro-ethyl)-imidazo[5,1-b]thiazol-3-yl]-hydroxy-methyl}-[1,2,3]triazol-1-yl)-phenoxy]-propan-1-ol], the IC50 in assay [1] was 10.2 nM; in assay [2], greater than 10200 nM.

`COc1ccc(-n2cc(C(O)c3c(C4CC4)sc4cncn34)nn2)cc1Br` (racemic) [Example 290, rac-[1-(3-Bromo-4-methoxy-phenyl)-1H-[1,2,3]triazol-4-yl]-(2-cyclopropyl-imidazo[5,1-b]thiazol-3-yl)-methanol]: the results for the IC50 in assay [1] and in assay [2] were 15.3 nM and greater than 10200 nM, respectively.

Take `NC(=O)c1ccc(-n2cc(C(O)c3c(C4CC4)sc4cncn34)nn2)cc1` (racemic) [Example 185, rac-4-{4-[(2-Cyclopropyl-imidazo[5,1-b]thiazol-3-yl)-hydroxy-methyl]-[1,2,3]triazol-1-yl}-benzamide]: the IC50 in assay [1] was 14.9 nM; in assay [2], greater than 10200 nM.

As for `CC(C)C(=O)Nc1ccc(-n2cc(C(O)c3c(C4CC4)sc4cncn34)nn2)cc1` (racemic) [Example 192, rac-N-(4-{4-[(2-Cyclopropyl-imidazo[5,1-b]thiazol-3-yl)-hydroxy-methyl]-[1,2,3]triazol-1-yl}-phenyl)-isobutyramide], the results for the half-maximal inhibitory concentration (IC50) in assay [1] and in assay [2] were 13.5 nM and greater than 10200 nM, respectively.

With `COc1ccc(-n2nnc(C(O)c3c(C4CC4)sc4cncn34)c2C(C)C)cc1` (racemic) [Example 280, rac-(2-Cyclopropyl-imidazo[5,1-b]thiazol-3-yl)-[5-isopropyl-1-(4-methoxy-phenyl)-1H-[1,2,3]triazol-4-yl]-methanol], the results for the IC50 in assay [1] and in assay [2] were 53.2 nM and greater than 10200 nM, respectively.
